The values that follow come from patent US20250235460A1, “COMBINATION THERAPY USING GLUCOSE-DEPENDENT INSULINOTROPIC POLYPEPTIDE RECEPTOR ANTAGONIST COMPOUNDS AND GLP-1 RECEPTOR AGONIST COMPOUNDS” (Pfizer Inc., priority 2024, published 2025).

The target in test [1] is human GLP-1R (Homo sapiens, UniProt P43220, G168S). The experiment in a line: CHO GLP-1R Clone H6 cAMP HTRF agonist assay (Assay 1, high receptor density). Conditions: for EC50: CHO GLP-1R clone H6, cAMP HTRF, geometric mean; for Emax: read-out: Assay 1 Emax (%). In kind it is cell-based. Summed up: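 Two significant figures are used throughout. Each EC50 is the geometric mean of its replicates, and each Emax is the arithmetic mean.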
A general note: In TR-FRET formats the signal depends on donor and acceptor labels being close together.

Test [2] has as its target human GLP-1R (Homo sapiens, UniProt P43220, L260F). The experiment in a line: CHO GLP-1R Clone C6 cAMP HTRF agonist assay (Assay 2, low receptor density). In kind it is cell-based. Conditions: for EC50: CHO GLP-1R clone C6, cAMP HTRF, geometric mean; for Emax / Assay 2 Emax (%): CHO GLP-1R clone C6, arithmetic mean, relative to saturating GLP-1 (1 μM). From the text: In Table 5 and Table 6, assay data are presented to two (2) significant figures as the geometric mean (EC50s) and arithmetic mean (Emax) based on the number of replicates listed (Number). A blank cell means there was no data for that Example or the Emax was not calculated.

[3] abbreviates: CHO GLP-1R clone H6, arithmetic mean, relative to saturating GLP-1 (1 μM).

As usually defined, the EC50 is the concentration giving half of the maximal effect. Low readings indicate higher potency in that assay, high ones lower potency in that assay. A word on the Emax: it is the greatest response seen or fitted, relative to the assay's reference.

Chain of human GLP-1R (Homo sapiens, UniProt P43220, L260F) (P43220 24-463 L260F): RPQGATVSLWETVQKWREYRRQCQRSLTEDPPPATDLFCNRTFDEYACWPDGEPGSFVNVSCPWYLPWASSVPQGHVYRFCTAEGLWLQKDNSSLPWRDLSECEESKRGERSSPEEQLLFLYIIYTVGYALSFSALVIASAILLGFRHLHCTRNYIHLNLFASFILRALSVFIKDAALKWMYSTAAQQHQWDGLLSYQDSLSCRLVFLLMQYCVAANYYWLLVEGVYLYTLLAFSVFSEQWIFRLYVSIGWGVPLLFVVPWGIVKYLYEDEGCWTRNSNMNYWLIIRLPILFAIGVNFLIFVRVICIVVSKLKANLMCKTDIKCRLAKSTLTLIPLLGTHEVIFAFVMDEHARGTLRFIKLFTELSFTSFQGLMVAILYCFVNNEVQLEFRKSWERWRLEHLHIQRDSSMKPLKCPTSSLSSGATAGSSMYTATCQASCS
Chain of human GLP-1R (Homo sapiens, UniProt P43220, G168S) (P43220 24-463 G168S): as the sequence (P43220 24-463 L260F) above, with G145S, F237L counted along it

For the compound `N#Cc1ccc(COc2cccc(C3CCN(Cc4nc5ccc(C(=O)O)nc5n4Cc4cnco4)CC3)n2)c(F)c1` [Compound 248B, 2-[(4-{6-[(4-cyano-2-fluorobenzyl)oxy]pyridin-2-yl}piperidin-1-yl)methyl]-3-(1,3-oxazol-5-ylmethyl)-3H-imidazo[4,5-b]pyridine-5-carboxylic acid], the half-maximal effective concentration (EC50) at human GLP-1R [1] was 0.002 µM; at human GLP-1R [2], 0.032 µM. Also, the figures for the Emax at human GLP-1R [1] (setting [3]) and at human GLP-1R [2] were 82% and 79%, respectively.
For `N#Cc1ccc(COc2cccc(N3CCN(Cc4nc5ccc(C(=O)O)cc5n4C[C@@H]4CCO4)CC3)n2)c(F)c1` [Compound 108B, 2-[(4-{6-[(4-cyano-2-fluorobenzyl)oxy]pyridin-2-yl}piperazin-1-yl)methyl]-1-[(2S)-oxetan-2-ylmethyl]-1H-benzimidazole-6-carboxylic acid], in that order: 0.016 µM, 0.32 µM, 85% and 88%.
In the case of `CO[C@@H]1CCC[C@@H]1Cn1c(CN2CCC(c3cccc(OCc4ccc(Cl)cc4F)n3)CC2)nc2ccc(C(=O)O)cc21` (racemic) [Compound 196B, rac-2-[(4-{6-[(4-chloro-2-fluorobenzyl)oxy]pyridin-2-yl}piperidin-1-yl)methyl]-1-{[(1S,2S)-2-methoxycyclopentyl]methyl}-1H-benzimidazole-6-carboxylic acid], the values for the EC50 at human GLP-1R [1] and on human GLP-1R [2] were 0.0041 µM and 0.17 µM, respectively. Besides, the Emax worked out at 67% on human GLP-1R [1] (setting [3]) and 75% at human GLP-1R [2].
Consider `O=C(O)c1ccc2nc(CN3CCN(c4cccc(OCc5ccc(Cl)cc5F)n4)CC3)n(Cc3cnco3)c2c1` [Compound 158B, 2-[(4-{6-[(4-chloro-2-fluorobenzyl)oxy]pyridin-2-yl}piperazin-1-yl)methyl]-1-(1,3-oxazol-5-ylmethyl)-1H-benzimidazole-6-carboxylic acid], for which the half-maximal effective concentration (EC50) on human GLP-1R [1] was found to be 0.014 µM; at human GLP-1R [2], 0.19 µM. The figures for the Emax on human GLP-1R [1] (setting [3]) and at human GLP-1R [2] were 72% and 83%, respectively.
For the compound `C[C@H]1CN(c2cccc(OCc3ccc(C#N)cc3)n2)CCN1Cc1nc2ccc(C(=O)O)cc2n1C[C@@H]1CCO1` [Compound 138B, 2-{[(2S)-4-{6-[(4-cyanobenzyl)oxy]pyridin-2-yl}-2-methylpiperazin-1-yl]methyl}-1-[(2S)-oxetan-2-ylmethyl]-1H-benzimidazole-6-carboxylic acid], the “Assay 1 Emax (%)” value on human GLP-1R [1] (setting [3]) is recorded as 95%. Also, the “Assay 2 Emax (%)” value on human GLP-1R [2] is 89%.
As to `C[C@H]1CN(c2cccc(OCc3ccc(C#N)cc3F)n2)CCN1Cc1nc2ccc(C(=O)O)cc2n1Cc1cocn1` [Compound 241B, 2-{[(2S)-4-{6-[(4-cyano-2-fluorobenzyl)oxy]pyridin-2-yl}-2-methylpiperazin-1-yl]methyl}-1-(1,3-oxazol-4-ylmethyl)-1H-benzimidazole-6-carboxylic acid], the values for the EC50 on human GLP-1R [1] and on human GLP-1R [2] were 0.0094 µM and 0.16 µM, respectively. Also, the Emax at human GLP-1R [1] (setting [3]) was found to be 69%; at human GLP-1R [2], 71%.
Consider `N#Cc1ccc(COc2cccc(C3CCN(Cc4nc5ccc(C(=O)O)cc5n4Cc4ccon4)CC3)n2)c(F)c1` [Compound 161B, 2-[(4-{6-[(4-cyano-2-fluorobenzyl)oxy]pyridin-2-yl}piperidin-1-yl)methyl]-1-(1,2-oxazol-3-ylmethyl)-1H-benzimidazole-6-carboxylic acid], for which the figures for the EC50 on human GLP-1R [1] and on human GLP-1R [2] were 0.0011 µM and 0.013 µM, respectively. Moreover, the Emax was found to be 79% on human GLP-1R [1] (setting [3]) and 100% on human GLP-1R [2].
Take `C[C@H]1CN(c2cccc(OCc3ccc(C#N)cc3)n2)CCN1Cc1nc2ccc(C(=O)O)cc2n1C[C@@H]1CCO1` [Compound 261B, 2-{[(2S)-4-{6-[(4-cyanobenzyl)oxy]pyridin-2-yl}-2-methylpiperazin-1-yl]methyl}-1-[(2S)-oxetan-2-ylmethyl]-1H-benzimidazole-6-carboxylic acid]: the Emax at human GLP-1R [1] (setting [3]) came to 100%. Further, the “Assay 2 Emax (%)” value on human GLP-1R [2] came out at 120%.
Regarding `O=C(O)c1ccc2nc(CN3CCC(c4cccc(OCc5ccc(Cl)cc5F)n4)CC3)n(CCn3cncn3)c2c1` [Compound 292B, 2-[(4-{6-[(4-chloro-2-fluorobenzyl)oxy]pyridin-2-yl}piperidin-1-yl)methyl]-1-[2-(1H-1,2,4-triazol-1-yl)ethyl]-1H-benzimidazole-6-carboxylic acid], the EC50 at human GLP-1R [1] came out at 0.055 µM; on human GLP-1R [2], 1.7 µM. In addition, the values for the Emax on human GLP-1R [1] (setting [3]) and at human GLP-1R [2] were 71% and 99%, respectively.
`N#Cc1ccc(COc2cccc(C3CCN(Cc4nc5ccc(C(=O)O)cc5n4Cc4ncco4)CC3)n2)c(F)c1` [Compound 139B, 2-[(4-{6-[(4-cyano-2-fluorobenzyl)oxy]pyridin-2-yl}piperidin-1-yl)methyl]-1-(1,3-oxazol-2-ylmethyl)-1H-benzimidazole-6-carboxylic acid]: the EC50 turned out to be 0.15 µM at human GLP-1R [1] and 1.2 µM at human GLP-1R [2]. The values for the Emax on human GLP-1R [1] (setting [3]) and at human GLP-1R [2] were 74% and 44%, respectively.
`CC1CN(c2cccc(OCc3ccc(Cl)cc3F)n2)CCN1Cc1nc2ccc(C(=O)O)cc2n1Cc1cocn1` (stereo in doubt) [Compound 240B, 2-{[(2S)-4-{6-[(4-chloro-2-fluorobenzyl)oxy]pyridin-2-yl}-2-methylpiperazin-1-yl]methyl}-1-(1,3-oxazol-4-ylmethyl)-1H-benzimidazole-6-carboxylic acid]: the EC50 turned out to be 0.0005 µM at human GLP-1R [1] and 0.016 µM on human GLP-1R [2]. The figures for the Emax at human GLP-1R [1] (setting [3]) and at human GLP-1R [2] were 78% and 86%, respectively.
For `COCCN1CCC(Cn2c(CN3CCC(c4cccc(OCc5ccc(Cl)cc5F)n4)CC3)nc3ccc(C(=O)O)cc32)CC1` [Compound 287B, 2-[(4-{6-[(4-chloro-2-fluorobenzyl)oxy]pyridin-2-yl}piperidin-1-yl)methyl]-1-{[1-(2-methoxyethyl)piperidin-4-yl]methyl}-1H-benzimidazole-6-carboxylic acid], in that order: 0.028 µM, 0.45 µM, 80% and 89%.
On to `N#Cc1ccc(COc2cccc(C3CCN(Cc4nc5ccc(C(=O)O)cc5n4C[C@@H]4CCCO4)CC3)n2)c(F)c1` [Compound 124B, 2-[(4-{6-[(4-cyano-2-fluorobenzyl)oxy]pyridin-2-yl}piperidin-1-yl)methyl]-1-[(2S)-tetrahydrofuran-2-ylmethyl]-1H-benzimidazole-6-carboxylic acid], for which the values for the EC50 at human GLP-1R [1] and on human GLP-1R [2] were 0.0064 µM and 0.11 µM, respectively. The values for the Emax at human GLP-1R [1] (setting [3]) and at human GLP-1R [2] were 90% and 94%, respectively.
For the compound `N#Cc1ccc(COc2nc(C3CCN(Cc4nc5ccc(C(=O)O)cc5n4CC4CCCO4)CC3)ccc2F)cc1` (stereo not drawn) [Compound 360B, 2-[(4-{6-[(4-cyanobenzyl)oxy]-5-fluoropyridin-2-yl}piperidin-1-yl)methyl]-1-(tetrahydrofuran-2-ylmethyl)-1H-benzimidazole-6-carboxylic acid], the Emax came to 72% at human GLP-1R [1] (setting [3]) and 84% at human GLP-1R [2].
Regarding `COCCN1CCCC(Cn2c(CN3CCC(c4cccc(OCc5ccc(Cl)cc5F)n4)CC3)nc3ccc(C(=O)O)cc32)C1` (stereo not drawn) [Compound 288B, 2-[(4-{6-[(4-chloro-2-fluorobenzyl)oxy]pyridin-2-yl}piperidin-1-yl)methyl]-1-{[1-(2-methoxyethyl)piperidin-3-yl]methyl}-1H-benzimidazole-6-carboxylic acid], the EC50 worked out at 0.03 µM on human GLP-1R [1] and 0.36 µM on human GLP-1R [2]. Moreover, the Emax came to 77% at human GLP-1R [1] (setting [3]) and 89% on human GLP-1R [2].
Take `Cn1c(CN2CCC(c3cccc(OCc4ccccc4OC(F)(F)F)n3)CC2)nc2ccc(C(=O)O)cc21` [Compound 229B, 1-methyl-2-{[4-(6-{[2-(trifluoromethoxy)benzyl]oxy}pyridin-2-yl)piperidin-1-yl]methyl}-1H-benzimidazole-6-carboxylic acid]: the EC50 at human GLP-1R [1] amounted to 0.001 µM; at human GLP-1R [2] it was 0.019 µM. In addition, the Emax on human GLP-1R [1] (setting [3]) came out at 76%; at human GLP-1R [2], 75%.
Regarding `O=C(O)c1ccc2nc(CN3CCC(c4cccc(OCc5ccc(Cl)cc5F)n4)CC3)n(Cc3c[nH]nn3)c2c1` [Compound 298B, 2-[(4-{6-[(4-chloro-2-fluorobenzyl)oxy]pyridin-2-yl}piperidin-1-yl)methyl]-1-(1H-1,2,3-triazol-4-ylmethyl)-1H-benzimidazole-6-carboxylic acid], the figures for the EC50 on human GLP-1R [1] and at human GLP-1R [2] were 0.11 µM and 2.7 µM, respectively. For the same compound, the Emax on human GLP-1R [1] (setting [3]) was determined as 74%.
`COCCn1c(CN2CCN(c3cccc(OCc4ccc(Cl)cc4F)n3)C[C@@H]2CO)nc2ccc(C(=O)O)cc21` [Compound 354B, 2-{[(2R)-4-{6-[(4-chloro-2-fluorobenzyl)oxy]pyridin-2-yl}-2-(hydroxymethyl)piperazin-1-yl]methyl}-1-(2-methoxyethyl)-1H-benzimidazole-6-carboxylic acid]: the EC50 at human GLP-1R [1] amounted to 0.094 µM; on human GLP-1R [2] it was 1.5 µM. Further, the Emax came to 78% on human GLP-1R [1] (setting [3]) and 69% on human GLP-1R [2].
With `COCCn1c(CN2CCN(c3cccc(OCc4ccc(Cl)cc4F)n3)C[C@@H]2C)nc2ccc(C(=O)O)cc21` [Compound 355B, 2-{[(2S)-4-{6-[(4-chloro-2-fluorobenzyl)oxy]pyridin-2-yl}-2-methylpiperazin-1-yl]methyl}-1-(2-methoxyethyl)-1H-benzimidazole-6-carboxylic acid], the values for the EC50 on human GLP-1R [1] and at human GLP-1R [2] were 0.0063 µM and 0.11 µM, respectively. For the same compound, the results for the Emax at human GLP-1R [1] (setting [3]) and at human GLP-1R [2] were 83% and 87%, respectively.
